Data as given in article PMC10376059, “New NADPH Oxidase 2 Inhibitors Display Potent Activity against Oxidative Stress by Targeting p22^phox-p47^phox Interactions” (Antioxidants, 2023).

Tests used:
[1] = biological target: T1, NADPH oxidase (NOX2) (Homo sapiens, UniProt P14598); experiment: NOX2 activity by cytochrome C reduction in HL-60 membrane preparations; assay type: biochemical; settings: HL-60 membrane homogenates, increasing concentrations
T1 construct: HL-60 cells expressed the components of NOX2, including gp91, p22^phox, p47^phox, and p67^phox; endogenous in cells; whole cells in A1, membrane preparations in A3 and A4
T1 sequence (P14598 1-390): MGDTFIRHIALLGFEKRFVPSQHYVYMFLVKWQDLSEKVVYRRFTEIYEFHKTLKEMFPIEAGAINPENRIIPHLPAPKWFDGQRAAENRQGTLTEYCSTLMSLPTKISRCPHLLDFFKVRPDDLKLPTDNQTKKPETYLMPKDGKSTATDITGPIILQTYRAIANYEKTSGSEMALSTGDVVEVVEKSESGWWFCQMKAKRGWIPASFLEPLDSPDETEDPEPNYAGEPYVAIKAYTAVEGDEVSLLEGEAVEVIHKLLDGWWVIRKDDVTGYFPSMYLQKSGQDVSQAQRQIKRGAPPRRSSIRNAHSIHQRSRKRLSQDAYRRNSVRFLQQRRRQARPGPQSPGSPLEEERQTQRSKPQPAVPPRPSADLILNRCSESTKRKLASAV
Procedure: Neutrophil-differentiated HL-60 cells (2 × 10^6 cells/mL) […], then PMA 0.8 μM was added and incubated for 1 h to induce the activation of the enzyme NADPH oxidase. As a positive inhibition control, VAS2870 (20 μM) was used. Another two controls were performed: one with cells activated by PMA in the presence of DMSO, and the other (NA, non-activated) with cells in the absence of PMA and the acrylonitrile compounds. In 15 mL conical tubes, 5 mL of cell suspension from each treatment and control condition was transferred at 2 × 10^6 cells/mL and centrifuged at 1000 rpm at 4 °C for 10 min. […]
The membrane preparations from the neutrophil-differentiated HL-60 cells, treated with the different indole heteroaryl-acrylonitrile derivatives, were re-suspended in PBS with 10 μL/mL of the protease inhibitor cocktail (in mM): 104 (4-(2-aminoethyl)benzenesulfonylfluoride hydrochloride); 1.4 N-(trans-epoxysuccinyl)-L-leucine-4-guanidinobutyric; 2 leupeptin hemisulfate; 4 bestatin hydrochloride; 1.5 pepstatin A; and 80 μM aprotinin. Total proteins were quantified by the bicinchoninic acid (BCA) method using the commercial kit BCA™ (Thermo Scientific Pierce™, Rockford, IL, USA), using BSA as a standard. […] The reaction was monitored at 550 nm for 30 min at 25 °C using PBS as a blank.

[2] = DPPH radical scavenging activity; assay type: physicochemical; settings: for antioxidant effects in the pharmacological range (in words): up to 50 μM
Procedure: The newly synthesized compounds were evaluated for 2,2-diphenyl-1-picrylhydrazyl […] free radical scavenging activity. The reduction and stabilization of DPPH by antioxidant compounds lead to discoloration, resulting in a decrease in absorbance at 517 nm, which was expressed as a percentage of the radical solution at a given concentration of discoloration. The heteroarylacrylonitrile derivatives were re-suspended in a minimum of DMSO at a final concentration of 5 mg/mL (stock solution). From these, they were diluted to concentrations of 1000, 500, and 100 μg/mL. These solutions were mixed with a methanol solution of DPPH (20 μg/mL) for 5 min. Each compound was evaluated in triplicate; absorbance at 517 nm in a UNICAM UV/visible spectrophotometer Helios-α (Thermo Electron Corporation, Waltham, MA USA) was measured by subtracting the solvent absorbance and comparing the resulting value with that of a blank sample. The percentage of discoloration was established according to the following formula: % Radical removal or discoloration = (1 − (AM − ABM)/AC) × 100, where AM is the absorbance of the sample compound, ABM is the absorbance of the sample blank, and AC is the absorbance of the control. The degree of discoloration indicates the efficacy of the compounds studied as free radical scavengers; therefore, a percentage of discoloration of 100 indicates the maximum radical scavenging capacity and a value close to 0 indicates a zero radical scavenging capacity. Quercetin was used as a reference compound in a concentration range of 1.25 to 7.5 μg/mL.

## N#C/C(=C\c1cc(-c2ccccc2)on1)C(=O)c1c[nH]c2ccccc12 [Compound C6]
[1]
  superoxide production, cytochrome C reduction (in words): reduced superoxide production in a concentration-dependent manner
[2]
  antioxidant capacity, DPPH discoloration (in words): showed antioxidant capacity only at very high concentrations
  antioxidant effects in the pharmacological range (in words): minimal

## N#C/C(=C\c1ccncc1)C(=O)c1c[nH]c2ccccc12 [Compound C14]
[1]
  superoxide production, cytochrome C reduction (in words): reduced superoxide production in a concentration-dependent manner
[2]
  antioxidant capacity, DPPH discoloration (in words): showed antioxidant capacity only at very high concentrations
  antioxidant effects in the pharmacological range (in words): minimal
[2]; concentration range 30–300 μM
  antioxidant capacity, DPPH discoloration: 12%
